Structures can show the parent of a compound that is named as a salt.
target: T1, human MGL from HeLa cells (Homo sapiens, UniProt Q99685); assay: In vitro MGL activity assay: [glycerol-1,3-3H]-oleyl glycerol cleavage by MGL from HeLa cells; format: biochemical; conditions: 300 nM [Glycerol-1,3-3H]-oleyl glycerol, one hour
T1 construct: combining endogenously expressed MGL from HeLa cells with test compounds; endogenous in cells; host or cells: HeLa cells / cell homogenates
T1 sequence (Q99685 1-303): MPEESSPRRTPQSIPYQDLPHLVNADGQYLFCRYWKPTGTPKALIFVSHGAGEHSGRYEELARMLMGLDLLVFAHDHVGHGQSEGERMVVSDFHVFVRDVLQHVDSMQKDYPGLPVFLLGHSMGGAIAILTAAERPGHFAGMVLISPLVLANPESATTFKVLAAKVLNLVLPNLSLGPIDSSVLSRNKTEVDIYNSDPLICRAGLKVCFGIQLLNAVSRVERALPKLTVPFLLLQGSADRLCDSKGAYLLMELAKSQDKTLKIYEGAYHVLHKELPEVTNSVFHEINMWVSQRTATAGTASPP
Source text: MGL is the predominant hydrolase in HeLa cells/cell homogenates.

IC50 [nM] | Compound
0.3 | C[C@H]1c2nn(C)c(-c3cc(F)c(F)c(F)c3)c2CCN1C(=O)c1c(F)cnc2c1ccn2C [Example 370, [(7S)-2,7-Dimethyl-3-(3,4,5-trifluorophenyl)-5,7-dihydro-4H-pyrazolo[3,4-c]pyridin-6-yl]-(5-fluoro-1-methyl-pyrrolo[2,3-b]pyridin-4-yl)methanone]
136 | C[C@H]1c2nn(C)c(-c3cc(F)c(F)c(F)c3)c2CCN1C(=O)c1c(C(F)(F)F)cnc2[nH]ccc12 [Example 371, [(7S)-2,7-Dimethyl-3-(3,4,5-trifluorophenyl)-5,7-dihydro-4H-pyrazolo[3,4-c]pyridin-6-yl]-[5-(trifluoromethyl)-1H-pyrrolo[2,3-b]pyridin-4-yl] methanone]
23.2 | C[C@H]1c2nn(C)c(-c3cc(F)c(F)c(F)c3)c2CCN1C(=O)c1c[nH]c2ncccc12 [Example 373, [(7S)-2,7-Dimethyl-3-(3,4,5-trifluorophenyl)-5,7-dihydro-4H-pyrazolo[3,4-c]pyridin-6-yl]-(1H-pyrrolo[2,3-b]pyridin-3-yl)methanone]
21 | C[C@H]1c2nn(C)c(-c3cc(F)c(F)c(F)c3)c2CCN1C(=O)c1c[nH]c2ncc(F)cc12 [Example 374, [(7S)-2,7-Dimethyl-3-(3,4,5-trifluorophenyl)-5,7-dihydro-4H-pyrazolo[3,4-c]pyridin-6-yl]-(5-fluoro-1H-pyrrolo[2,3-b]pyridin-3-yl)methanone]
30.3 | Cc1[nH]c2ncccc2c1C(=O)N1CCc2c(nn(C)c2-c2cc(F)c(F)c(F)c2)[C@@H]1C [Example 375, [(7S)-2,7-Dimethyl-3-(3,4,5-trifluorophenyl)-5,7-dihydro-4H-pyrazolo[3,4-c]pyridin-6-yl]-(2-methyl-1H-pyrrolo[2,3-b]pyridin-3-yl)methanone]
599 | C[C@H]1c2nn(C)c(-c3cc(F)c(F)c(F)c3)c2CCN1C(=O)c1nccc2cc[nH]c12 [Example 376, [(7S)-2,7-Dimethyl-3-(3,4,5-trifluorophenyl)-5,7-dihydro-4H-pyrazolo[3,4-c]pyridin-6-yl]-(1H-pyrrolo[2,3-c]pyridin-7-yl)methanone]
4.68 | C[C@H]1c2nn(C)c(-c3cc(F)c(F)c(F)c3)c2CCN1C(=O)c1cccn2ncc(F)c12 [Example 377, [(7S)-2,7-Dimethyl-3-(3,4,5-trifluorophenyl)-5,7-dihydro-4H-pyrazolo[3,4-c]pyridin-6-yl]-(3-fluoropyrazolo[1,5-a]pyridin-4-yl)methanone]
38.8 | C[C@H]1c2nn(C)c(-c3cc(F)c(F)c(F)c3)c2CCN1C(=O)c1ccn2ncc(F)c2c1 [Example 378, [(7S)-2,7-Dimethyl-3-(3,4,5-trifluorophenyl)-5,7-dihydro-4H-pyrazolo[3,4-c]pyridin-6-yl]-(3-fluoropyrazolo[1,5-a]pyridin-5-yl)methanone]
45.5 | C[C@H]1c2nn(C)c(-c3cc(F)c(F)c(F)c3)c2CCN1C(=O)c1cccn2ncc(Br)c12 [Example 379, (3-Bromopyrazolo[1,5-a]pyridin-4-yl)-[(7S)-2,7-dimethyl-3-(3,4,5-trifluorophenyl)-5,7-dihydro-4H-pyrazolo[3,4-c]pyridin-6-yl]methanone]
44 | Cc1cnn2cccc(C(=O)N3CCc4c(nn(C)c4-c4cc(F)c(F)c(F)c4)[C@@H]3C)c12 [Example 380, [(7S)-2,7-Dimethyl-3-(3,4,5-trifluorophenyl)-5,7-dihydro-4H-pyrazolo[3,4-c]pyridin-6-yl]-(3-methylpyrazolo[1,5-a]pyridin-4-yl)methanone]
10.7 | C[C@H]1c2nn(C)c(-c3cc(F)c(F)c(F)c3)c2CCN1C(=O)c1cnn2ccccc12 [Example 381, [(7S)-2,7-Dimethyl-3-(3,4,5-trifluorophenyl)-5,7-dihydro-4H-pyrazolo[3,4-c]pyridin-6-yl]-pyrazolo[1,5-a]pyridin-3-yl-methanone.TFA salt]
4.26 | Cc1nn2ccccc2c1C(=O)N1CCc2c(nn(C)c2-c2cc(F)c(F)c(F)c2)[C@@H]1C [Example 382, [(7S)-2,7-Dimethyl-3-(3,4,5-trifluorophenyl)-5,7-dihydro-4H-pyrazolo[3,4-c]pyridin-6-yl]-(2-methylpyrazolo[1,5-a]pyridin-3-yl)methanone]
6.39 | Cc1ccn2ncc(C(=O)N3CCc4c(nn(C)c4-c4cc(F)c(F)c(F)c4)[C@@H]3C)c2c1 [Example 383, [(7S)-2,7-Dimethyl-3-(3,4,5-trifluorophenyl)-5,7-dihydro-4H-pyrazolo[3,4-c]pyridin-6-yl]-(5-methylpyrazolo[1,5-a]pyridin-3-yl)methanone]
44 | C[C@H]1c2nn(C)c(-c3cc(F)c(F)c(F)c3)c2CCN1C(=O)c1cnn2cc(F)ccc12 [Example 384, [(7S)-2,7-Dimethyl-3-(3,4,5-trifluorophenyl)-5,7-dihydro-4H-pyrazolo[3,4-c]pyridin-6-yl]-(6-fluoropyrazolo[1,5-a]pyridin-3-yl)methanone]
120 | Cc1cccc2c(C(=O)N3CCc4c(nn(C)c4-c4cc(F)c(F)c(F)c4)[C@@H]3C)c(C3CC3)nn12 [Example 385, (2-Cyclopropyl-7-methyl-pyrazolo[1,5-a]pyridin-3-yl)-[(7S)-2,7-dimethyl-3-(3,4,5-trifluorophenyl)-5,7-dihydro-4H-pyrazolo[3,4-c]pyridin-6-yl]methanone]
11.7 | Cc1cccc2c(C(=O)N3CCc4c(nn(C)c4-c4cc(F)c(F)c(F)c4)[C@@H]3C)cnn12 [Example 386, [(7S)-2,7-Dimethyl-3-(3,4,5-trifluorophenyl)-5,7-dihydro-4H-pyrazolo[3,4-c]pyridin-6-yl]-(7-methylpyrazolo[1,5-a]pyridin-3-yl)methanone]
26.4 | COc1cccc2c(C(=O)N3CCc4c(nn(C)c4-c4cc(F)c(F)c(F)c4)[C@@H]3C)cnn12 [Example 387, [(7S)-2,7-Dimethyl-3-(3,4,5-trifluorophenyl)-5,7-dihydro-4H-pyrazolo[3,4-c]pyridin-6-yl]-(7-methoxypyrazolo[1,5-a]pyridin-3-yl)methanone]
60.7 | COc1ccc2c(C(=O)N3CCc4c(nn(C)c4-c4cc(F)c(F)c(F)c4)[C@@H]3C)cnn2c1 [Example 388, [(7S)-2,7-Dimethyl-3-(3,4,5-trifluorophenyl)-5,7-dihydro-4H-pyrazolo[3,4-c]pyridin-6-yl]-(6-methoxypyrazolo[1,5-a]pyridin-3-yl)methanone.TFA salt]
9.94 | COc1ccn2ncc(C(=O)N3CCc4c(nn(C)c4-c4cc(F)c(F)c(F)c4)[C@@H]3C)c2c1 [Example 389, [(7S)-2,7-Dimethyl-3-(3,4,5-trifluorophenyl)-5,7-dihydro-4H-pyrazolo[3,4-c]pyridin-6-yl]-(5-methoxypyrazolo[1,5-a]pyridin-3-yl)methanone]
12.6 | COc1cccn2ncc(C(=O)N3CCc4c(nn(C)c4-c4cc(F)c(F)c(F)c4)[C@@H]3C)c12 [Example 390, [(7S)-2,7-Dimethyl-3-(3,4,5-trifluorophenyl)-5,7-dihydro-4H-pyrazolo[3,4-c]pyridin-6-yl]-(4-methoxypyrazolo[1,5-a]pyridin-3-yl)methanone]
103 | C[C@H]1c2nn(C)c(-c3cc(F)c(F)c(F)c3)c2CCN1C(=O)c1ccc2nccn2c1 [Example 391, [(7S)-2,7-Dimethyl-3-(3,4,5-trifluorophenyl)-5,7-dihydro-4H-pyrazolo[3,4-c]pyridin-6-yl]-imidazo[1,2-a]pyridin-6-yl-methanone]
711 | C[C@H]1c2nn(C)c(-c3cc(F)c(F)c(F)c3)c2CCN1C(=O)c1cccn2ccnc12 [Example 392, [(7S)-2,7-Dimethyl-3-(3,4,5-trifluorophenyl)-5,7-dihydro-4H-pyrazolo[3,4-c]pyridin-6-yl]-imidazo[1,2-a]pyridin-8-yl-methanone]
252 | C[C@H]1c2nn(C)c(-c3cc(F)c(F)c(F)c3)c2CCN1C(=O)c1cnc2cc(F)ccn12 [Example 393, [(7S)-2,7-Dimethyl-3-(3,4,5-trifluorophenyl)-5,7-dihydro-4H-pyrazolo[3,4-c]pyridin-6-yl]-(7-fluoroimidazo[1,2-a]pyridin-3-yl)methanone]
140 | Cc1cn2c(C(=O)N3CCc4c(nn(C)c4-c4cc(F)c(F)c(F)c4)[C@@H]3C)cccc2n1 [Example 394, [(7S)-2,7-Dimethyl-3-(3,4,5-trifluorophenyl)-5,7-dihydro-4H-pyrazolo[3,4-c]pyridin-6-yl]-(2-methylimidazo[1,2-a]pyridin-5-yl)methanone]
6.73 | COc1cc(Cl)cc(-c2c3c(nn2C)[C@H](C)N(C(=O)c2c(C)nc4ccccn24)CC3)c1 [Example 395, [(7S)-3-(3-Chloro-5-methoxy-phenyl)-2,7-dimethyl-5,7-dihydro-4H-pyrazolo[3,4-c]pyridin-6-yl]-(2-methylimidazo[1,2-a]pyridin-3-yl) methanone]
5.04 | Cc1cc(F)cc(-c2c3c(nn2C)[C@H](C)N(C(=O)c2c(C)nc4ccccn24)CC3)c1 [Example 396, [(7S)-3-(3-Fluoro-5-methyl-phenyl)-2,7-dimethyl-5,7-dihydro-4H-pyrazolo[3,4-c]pyridin-6-yl]-(2-methylimidazo[1,2-a]pyridin-3-yl)methanone]
10.3 | Cc1nc2ccccn2c1C(=O)N1CCc2c(nn(C)c2-c2cc(F)c(F)c(F)c2)[C@@H]1C [Example 397, [(7S)-2,7-Dimethyl-3-(3,4,5-trifluorophenyl)-5,7-dihydro-4H-pyrazolo[3,4-c]pyridin-6-yl]-(2-methylimidazo[1,2-a]pyridin-3-yl)methanone]

— patent publication US11820766B2, “Monoacylglycerol lipase modulators” (Janssen Pharmaceutica NV, priority 2018, dated 2023)
